The results in this text go back to PubChem BioAssay (NCI).

Several values for one entry are separate records, joined by “and”; a condition that tells them apart may be missing. Identical values can stand only once.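 Assay format: 96-well plates, 48-hour exposure. The concentration for 50% growth inhibition is given as GI50. TGI: total growth inhibition.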 Where a SMILES comes first, the peptide text is derived from it. [ ]: non-standard residue; d: D form. The star is where a group is joined. Bn2Val = CC(C)[C@@H](C(=O)*)N(Cc1ccccc1)Cc1ccccc1; NH(3,4-diMeO-benzyl) = COc1ccc(CN*)cc1OC; NMeV = CN[C@H](C(=O)O)C(C)C; dNMeA = CN[C@H](C)C(=O)O

What all share (test): NCI tumour cell line growth inhibition, 48 h
The test system of experiment [1] is K-562 leukemia.
For experiment [2], the system named is SF-539 CNS.
Experiment [3] relates to OVCAR-8 ovarian.
Experiment [4] has as its system SK-OV-3 ovarian.
The test system of experiment [5] is HOP-62 NSCLC.
Experiment [6] concerns HT29 colon.
Experiment [7] deals with M14 melanoma.
Experiment [8] relates to A498 renal.
Experiment [9] has as its system RPMI-8226 leukemia.
Experiment [10] deals with CAKI-1 renal.

Regarding `Cc1c(N2C(=O)/C(=C\c3ccccc3O)N=C2c2ccccc2)c(=O)n(-c2ccccc2)n1C`, the GI50 was over 100 µM in [1]; 33.5 µM in experiment [2]; 63.2 µM in experiment [3]; 57.3 µM in [4]; 19.4 µM in experiment [5]; over 100 µM in experiment [6]. Also, the GI50 in experiment [7] is over 100 µM; in [8], over 100 µM; in experiment [9], over 100 µM; in [10] it was 15.6 µM. The TGI in experiment [1] was over 100 µM; in experiment [2], over 100 µM; in experiment [3] it was over 100 µM; in experiment [4], over 100 µM; in [5], 46.1 µM; in experiment [6], over 100 µM. The TGI in experiment [7] was over 100 µM; in [8], over 100 µM; in [9] it was over 100 µM; in experiment [10], 76.9 µM.

For `O=C1Oc2cc3c(c4cccc1c24)OCN(c1ccc(Cl)cc1)C3`, the TGI in experiment [1] is 53.2 µM; in [2], 23.9 µM; in experiment [3] it was over 100 µM; in experiment [4], over 100 µM; in [5], over 100 µM; in [6], over 100 µM. The TGI in experiment [7] was over 57.8 µM; in experiment [8], over 100 µM; in [9], 42.1 µM; in [10], over 100 µM.

Turning to `COc1ccc(NC2Oc3cc4c(cc3C(c3cc(OC)c(OC)c(OC)c3)C2C)OCO4)cc1` (stereo not drawn), the TGI in experiment [1] is over 100 µM; in [2] it was 0.492 µM; in experiment [3] it was over 45.4 µM; in [4], over 100 µM; in [5], 6.98 µM; in experiment [6], over 100 µM. In addition, the TGI is over 45.1 µM in experiment [7], 0.92 µM in experiment [8], over 83 µM in experiment [9] and over 91.5 µM in [10].

For the molecule `COC(=O)c1c2c(c(C)[n+]([O-])c1C)C(=O)C=CC2=O`, the GI50 is 3.04 µM in experiment [1]; 1.8 µM in experiment [2]; 0.339 µM in experiment [3]; 2.26 µM in experiment [4]; 0.744 µM in [5]; 2.41 µM in experiment [6]. Further, the GI50 in [7] was 1.78 µM; in experiment [8], 3.58 µM; in experiment [9], 2.07 µM; in experiment [10] it was 1.95 µM. Also, the TGI in experiment [1] came out at 36 µM; in experiment [2], 3.2 µM; in experiment [3] it was 1.24 µM; in [4], 5.38 µM; in experiment [5], 2.27 µM; in experiment [6], 6.54 µM. The TGI in experiment [7] amounted to 3.45 µM; in experiment [8], 13.9 µM; in experiment [9], 5.29 µM; in experiment [10], 4.2 µM.

Consider `OCCNCO`, for which the TGI in experiment [1], in [2], in experiment [3], in experiment [4], in experiment [5] and in experiment [6] was over 100 µM throughout. Besides, the TGI in [7], in [8], in [9] and in [10] was over 100 µM in each case.

Consider `C[C@@H]1Cc2c([nH]c3ccccc23)[C@@H](c2c(F)cc(/C=C/C(=O)O)cc2F)N1CC(C)(C)F`, for which the GI50 in [1] is 13.6 µM; in experiment [2], 14.5 µM; in experiment [3], 11.9 µM; in experiment [4] it was 18.6 µM; in experiment [5], 15.5 µM; in experiment [6] it was 14.5 µM. Besides, the GI50 in experiment [7] was 14 µM; in [8] it was 8.77 µM; in experiment [9], 8.1 µM; in [10] it was 18.8 µM. For the same molecule, the TGI in experiment [1] was found to be 46.1 µM; in experiment [2], 32.4 µM; in experiment [3], 38.4 µM; in experiment [4], 36.7 µM; in experiment [5] it was 31.7 µM; in experiment [6] it was 31.3 µM. Further, the TGI in [7] turned out to be 34.5 µM; in [8] it was 23.7 µM; in experiment [9], 37.6 µM; in experiment [10], 61.8 µM.

As for `COc1ccc(CNC(=O)[C@@H](C)N(C)C(=O)[C@@H]2CCCN2C(=O)[C@H](C(C)C)N(C)C(=O)[C@@H](NC(=O)[C@H](C(C)C)N(Cc2ccccc2)Cc2ccccc2)C(C)C)cc1OC` (Bn2Val-V[NMeV]P[dNMeA]-{NH(3,4-diMeO-benzyl)}), the GI50 is 6.52 µM in experiment [1]; 5.23 µM in experiment [2]; 16.3 µM in [3]; 23.6 µM in [4]; 14.7 µM in [5]; 3.08 µM in [6]. The results for the GI50 in experiment [7] and in experiment [10] were 63.2 µM and 12.7 µM, respectively. In addition, the TGI in experiment [1] was 50 µM and > 100 µM; in [2], 16.6 µM and 17.8 µM; in [3] it was 50 µM and > 100 µM; in experiment [4], 36.3 µM and 96.7 µM; in experiment [5] it was 16.5 µM and 33.4 µM; in experiment [6] it was 12.2 µM and 10.6 µM. Also, the TGI was 16.9 µM and > 100 µM in experiment [7]; 23.7 µM in experiment [8]; 20 µM and 18.6 µM in experiment [9]; 47 µM and 30.5 µM in experiment [10].

For the molecule `COC(=O)c1c(OC)cccc1C(=O)O`, the TGI in experiment [1], in experiment [2], in [3], in experiment [4], in experiment [5] and in [6] was over 100 µM in each case. The TGI in experiment [7], in experiment [8], in experiment [9] and in experiment [10] was over 100 µM throughout.

Consider `CNC(=O)c1cc(Oc2ccc3c(c2)sc2nc(-c4ccc(N)cc4)cn23)ccn1`, for which the GI50 was 0.0911 µM in [1]; 0.324 µM in [2]; 0.39 µM in [3]; 0.47 µM in experiment [4]; 0.346 µM in [5]; 0.197 µM in experiment [6]. Besides, the GI50 in experiment [7] is 0.162 µM; in [8], 0.0762 µM; in [9] it was 0.32 µM; in [10], 0.329 µM. The TGI in experiment [1] is over 100 µM; in experiment [2], over 100 µM; in experiment [3] it was over 100 µM; in experiment [4], over 100 µM; in experiment [5] it was over 100 µM; in experiment [6] it was 0.802 µM. Moreover, the TGI in [7] is over 100 µM; in experiment [8], 0.65 µM; in experiment [9], 26.3 µM; in experiment [10], over 100 µM.
